Data on 36 compounds can be found in US20260258025A1, “INHIBITORS OF TDP-43 AND TAU AGGREGATION” (Aquinnah Pharmaceuticals, inc., priority 2023, published 2026).

This test has as its system TDP-43 aggregation. Briefly: TDP-43 aggregation assay in SY5Y TDP-43WT cells (high content imaging). It counts as cell-based. To be noted: Homo sapiens, tetracycline induction 24 hrs, 1 hour compound pre-treatment, sodium arsenite 23 hrs, 8-point dose curve, percentage of cells with TDP-43 aggregates, read-out: IC50, Inhibition of TDP-43 Aggregation. The procedure: Exemplary compounds disclosed herein were evaluated for efficacy in inhibiting TDP-43 inclusions cellular imaging-based assays.
The cellular model was in human neuroblastoma SH SYSY cells (ATCC, cat #: CRL-2266). The parent cell line was first engineered to stably express a tetracycline repressor protein (designated as TREx-SY5Y cells, customer cell line development by ThermoFisher). Wild-type human TDP-43 with a C-terminus eGFP tag was synthesized and cloned into pcDNA5/TO expression vector (ThermoFisher). The plasmid was transfected into TREx-SY5Y cells using Lipofectamine 2000 and hygromycin resistant colonies were selected. Expression of TDP-43WT::eGFP was examined under fluorescent microscopy and Western blot upon tetracycline induction. The clone that was used for TDP-43 aggregation assay is referred to as SY5Y TDP-43WT cells hereafter.
Compound inhibition of TDP-43 aggregation was tested in an 8-point dose curve in 96-well format. Briefly, TDP-43WT::eGFP expression was induced with […] for 24 hrs (SY5Y TDP-43WT cells). The cells were then pre-treated for 1 hour with exemplary compounds before adding sodium arsenite to a final concentration of […] and incubated for another 23 hrs. At the end of the treatment the cell monolayers were washed in PBS and fixed in 4% paraformaldehyde (PFA), diluted from 16% stock (Electron Microscopy Sciences cat: #15710-S). The inhibitory effect on TDP-43 aggregation was measured using CellInsight CX7 high content imager (ThermoFisher). The percentage of cells with TDP-43 aggregates was calculated based on the total number of cells identified by DAPI staining. An 8-point dose response curve was generated, and the IC50 for each compound tested was determined (Table 3).
In Table 3 below, A indicates an IC50 (nM)<500 nM, B indicates an IC50 (nM) 500 nM to <1000 nM, C indicates an IC50 (nM) 1000 nM to <2000 nM, D indicates an IC50 (nM) 2000 nM to <6000 nM, and E indicates an IC50 (nM) 6000 nM to ≤10000 nM.
As to `Cc1cc(-c2ccc(C3CCCCC3)cc2)sc1C(=O)N1CC[C@H](N)C1` [Compound 238], the IC50 lay in the range of 6 to 10 µM.
As for `COCCCN1CCC(c2ccc(-c3cc(C)c(C(=O)N4CC[C@H](N)C4)s3)cc2F)CC1` [Compound 275, (S)-(3-aminopyrrolidin-1-yl)(5-(3-fluoro-4-(1-(3-methoxypropyl)piperidin-4-yl)phenyl)-3-methylthiophen-2-yl)methanone], the figure is under 0.5 µM; as for `CC(C)(O)CN1CCC(c2ccc(-c3cc(Cl)c(C(=O)N4CC[C@H](N)C4)s3)cc2F)CC1` [Compound 256, (S)-(3-aminopyrrolidin-1-yl)(3-chloro-5-(3-fluoro-4-(1-(2-hydroxy-2-methylpropyl)piperidin-4-yl)phenyl)thiophen-2-yl)methanone], under 0.5 µM; as for `Cc1cc(-c2ccc(C3CCN(CC(C)(C)O)CC3)c(F)c2)sc1C(=O)N1CC[C@H](N)C1` [Compound 257, (S)-(3-aminopyrrolidin-1-yl)(5-(3-fluoro-4-(1-(2-hydroxy-2-methylpropyl)piperidin-4-yl)phenyl)-3-methylthiophen-2-yl)methanone], under 0.5 µM.
As for `Cc1cc(-c2ccc(C(C)(C)N(C)C)cc2)sc1C(=O)N1CC[C@H](N)C1` [Compound 190, (S)-(3-aminopyrrolidin-1-yl)(5-(4-(2-(dimethylamino)propan-2-yl)phenyl)-3-methylthiophen-2-yl)methanone], the figure is under 0.5 µM.
In the case of `Cc1cnc(-c2cc(C)c(C(=O)N3CC[C@H](N)C3)s2)cn1` [Compound 223] it was 1 to 2 µM; in that of `COC(C)(C)CN1CCC(c2ccc(-c3cc(C)c(C(=O)N4CC[C@H](N)C4)s3)cc2F)CC1` [Compound 254, (S)-(3-aminopyrrolidin-1-yl)(5-(3-fluoro-4-(1-(2-methoxy-2-methylpropyl)piperidin-4-yl)phenyl)-3-methylthiophen-2-yl)methanone], under 0.5 µM.
Turning to `CCc1cc(-c2cc(C)c(C(=O)N3CC[C@H](N)C3)s2)ccc1C1CCOCC1` [Compound 157, (S)-(3-aminopyrrolidin-1-yl)(5-(3-ethyl-4-(tetrahydro-2H-pyran-4-yl)phenyl)-3-methylthiophen-2-yl)methanone], the IC50 was 6 to 10 µM.
As for `Cc1cc(-c2ccc3ccccc3c2)sc1C(=O)N1CC[C@H](N)C1` [Compound 246], the figure is 6 to 10 µM.
As for `Cc1cc(-c2ccc(N3CCC(C)CC3)cc2)sc1C(=O)N1CC[C@H](N)C1` [Compound 184, (S)-(3-aminopyrrolidin-1-yl)(3-methyl-5-(4-(4-methylpiperidin-1-yl)phenyl)thiophen-2-yl)methanone], the figure is 2 to 6 µM; as for `COC(C)CN1CCC(c2ccc(-c3cc(C)c(C(=O)N4CC[C@H](N)C4)s3)cc2F)CC1` (stereo partly drawn) [Compound 251, ((S)-3-aminopyrrolidin-1-yl)(5-(3-fluoro-4-(1-(2-methoxypropyl)piperidin-4-yl)phenyl)-3-methylthiophen-2-yl)methanone], under 0.5 µM.
As for `COC(C)(C)CN1CCC(c2ccc(-c3cc(Cl)c(C(=O)N4CC[C@H](N)C4)s3)cc2F)CC1` [Compound 249, (S)-(3-aminopyrrolidin-1-yl)(3-chloro-5-(3-fluoro-4-(1-(2-methoxy-2-methylpropyl)piperidin-4-yl)phenyl)thiophen-2-yl)methanone], the figure is under 0.5 µM.
Turning to `Cc1cc(-c2ccc3c(c2)CCCO3)sc1C(=O)N1CC[C@H](N)C1` [Compound 229], the 50% inhibitory concentration (IC50) fell in the range of 0.5 to 1 µM.
As to `CN1CCC(c2ccc(-c3cc(Cl)c(C(=O)N4CC[C@H](N)C4)s3)cc2F)CC1` [Compound 280, (S)-(3-aminopyrrolidin-1-yl)(3-chloro-5-(3-fluoro-4-(1-methylpiperidin-4-yl)phenyl)thiophen-2-yl)methanone], the IC50 was under 0.5 µM.
In the case of `Cc1cc(-c2ccc(C3CCN(C4CCNCC4)CC3)cc2)sc1C(=O)N1CC[C@H](N)C1` [Compound 177, (S)-(5-(4-([1,4′-bipiperidin]-4-yl)phenyl)-3-methylthiophen-2-yl)(3-aminopyrrolidin-1-yl)methanone] it was 0.5 to 1 µM; in that of `Cc1cc(-c2ccc(N3CCOCC3)cc2)sc1C(=O)N1CC[C@H](N)C1` [Compound 239], 0.5 to 1 µM; in that of `Cc1cc(-c2ccc(C3=CCOCC3)cc2)sc1C(=O)N1CC[C@H](N)C1` [Compound 236], under 0.5 µM.
Turning to `Cc1ccc(-c2cc(C)c(C(=O)N3CC[C@H](N)C3)s2)cc1` [Compound 225], the IC50 is under 0.5 µM.
In the case of `CCc1ccc(-c2cc(C)c(C(=O)N3CC[C@H](N)C3)s2)cc1` [Compound 228] it was 0.5 to 1 µM; in that of `Cc1cc(-c2ccc(-c3ccccc3)cc2)sc1C(=O)N1CC[C@H](N)C1` [Compound 234], 2 to 6 µM; in that of `COc1cc(-c2cc(C)c(C(=O)N3CC[C@H](N)C3)s2)ccc1C1CCN(C2CCOCC2)CC1` [Compound 260, (S)-(3-aminopyrrolidin-1-yl)(5-(3-methoxy-4-(1-(tetrahydro-2H-pyran-4-yl)piperidin-4-yl)phenyl)-3-methylthiophen-2-yl)methanone], 1 to 2 µM.
In the case of `CCCc1ccc(-c2cc(C)c(C(=O)N3CC[C@H](N)C3)s2)cc1` [Compound 227] it was 2 to 6 µM; in that of `CCc1ccc(-c2cc(C)c(C(=O)N3CC[C@H](N)C3)s2)cc1C` [Compound 220], 6 to 10 µM.
`Cc1cc(-c2ccc3c(c2)CCN(C)C3)sc1C(=O)N1CC[C@H](N)C1` [Compound 191, (S)-(3-aminopyrrolidin-1-yl)(3-methyl-5-(2-methyl-1,2,3,4-tetrahydroisoquinolin-6-yl)thiophen-2-yl)methanone]: the half-maximal inhibitory concentration (IC50) is under 0.5 µM.
On to `N[C@H]1CCN(C(=O)c2sc(-c3ccc(C4CCN(C5CCOCC5)CC4)cc3)cc2Cl)C1` [Compound 294, (S)-(3-aminopyrrolidin-1-yl)(3-chloro-5-(4-(1-(tetrahydro-2H-pyran-4-yl)piperidin-4-yl)phenyl)thiophen-2-yl)methanone], for which the IC50 is under 0.5 µM.
As for `Cc1cc(-c2ccc3c(c2)CCCC3)sc1C(=O)N1CC[C@H](N)C1` [Compound 247], the figure is 6 to 10 µM; as for `Cc1cc(-c2ccc(COC3CCCCC3)cc2)sc1C(=O)N1CC[C@H](N)C1` [Compound 203, (S)-(3-aminopyrrolidin-1-yl){5-[4-(cyclohexyloxymethyl)phenyl]-3-methylthiophen-2-yl}methanone], 2 to 6 µM.
In the case of `Cc1cc(-c2ccc(C3CCC3)cc2)sc1C(=O)N1CC[C@H](N)C1` [Compound 232] it was 0.5 to 1 µM; in that of `CCc1ccc(-c2sc(C(=O)N3CC[C@H](N)C3)c(C)c2C)cc1` [Compound 233], 6 to 10 µM; in that of `CCCc1cc(-c2ccc(C3CCN(C4CCOCC4)CC3)cc2)sc1C(=O)N1CC[C@H](N)C1` [Compound 285, (S)-(3-aminopyrrolidin-1-yl)(3-propyl-5-(4-(1-(tetrahydro-2H-pyran-4-yl)piperidin-4-yl)phenyl)thiophen-2-yl)methanone], 1 to 2 µM.
On to `Cc1cc(-c2ccc3c(c2)CCCC3N(C)C)sc1C(=O)N1CC[C@H](N)C1` (stereo partly drawn) [Compound 186, ((S)-3-aminopyrrolidin-1-yl)(5-(5-(dimethylamino)-5,6,7,8-tetrahydronaphthalen-2-yl)-3-methylthiophen-2-yl)methanone], for which the IC50 was in the range of 2 to 6 µM.
As for `Cc1cc(-c2ccc(C3(N(C)C)CCC3)cc2)sc1C(=O)N1CC[C@H](N)C1` [Compound 187, (S)-(3-aminopyrrolidin-1-yl)(5-(4-(1-(dimethylamino)cyclobutyl)phenyl)-3-methylthiophen-2-yl)methanone], the figure is 0.5 to 1 µM; as for `Cc1cc(-c2ccc(C3CCN(C4CCC4)CC3)c(F)c2)sc1C(=O)N1CC[C@H](N)C1` [Compound 279, (S)-(3-aminopyrrolidin-1-yl)(5-(4-(1-cyclobutylpiperidin-4-yl)-3-fluorophenyl)-3-methylthiophen-2-yl)methanone], under 0.5 µM; as for `Cc1cc(-c2ccc(C3COC3)cc2)sc1C(=O)N1CC[C@H](N)C1` [Compound 235], under 0.5 µM.
Turning to `N[C@H]1CCN(C(=O)c2sc(-c3ccc(C4CCN(C5CCOC5)CC4)c(F)c3)cc2Cl)C1` (stereo partly drawn) [Compound 267, ((S)-3-aminopyrrolidin-1-yl)(3-chloro-5-(3-fluoro-4-(1-(tetrahydrofuran-3-yl)piperidin-4-yl)phenyl)thiophen-2-yl)methanone], the IC50 was under 0.5 µM.
For the compound `Cc1cc(-c2ccc(C3CCN(C4CCOCC4)CC3)c(Cl)c2)sc1C(=O)N1CC[C@H](N)C1` [Compound 287, (S)-(3-aminopyrrolidin-1-yl)(5-(3-chloro-4-(1-(tetrahydro-2H-pyran-4-yl)piperidin-4-yl)phenyl)-3-methylthiophen-2-yl)methanone], the IC50 was under 0.5 µM.

By IC50 is commonly meant the concentration that gives 50% inhibition.
